Experimental data: patent publication US12065699B2, “Monitoring and diagnosis for immunotherapy, and design for therapeutic agent” (Repertoire Genesis Incorporation, priority 2016, dated 2024)

Legend:
CD8 positive cells = experiment: intracellular interferon γ staining (flow cytometry); assay type: cell-based, human; parameters: key: ++ refers to a sample found to produce interferon γ in 3/3; + refers to a sample found to produce interferon γ in ⅓ to ⅔; conditions: 5×10^5 lymphocytes, peptide 1 μg/ml, 4 hours
Protocol: (§1) Peripheral blood of healthy individuals with the same HLA-A*02:01 as the subject sample (tumor patient) was used. An experiment of reactivity was conducted using peptides that were manufactured therefor.
The obtained samples were subjected to intracellular interferon γ staining. 5×10^5 lymphocytes were stimulated and cultured for 4 hours in a 200 μl medium. Neoantigen peptides and control peptides were added so that the final concentration was 1 μg/ml for stimulation. An unstimulated control was also prepared. BioLegend Brefeldin A Solution (1,000×) was added so that the final concentration would be 5.0 μg/ml during stimulation. After the completion of culturing, the cells were collected and stained for 30 minutes at 4° C. with Fixable Viability Dye eFluor780 (eBioscience 65-0865-18), FITC labeled anti-CD4 antibody (BD Pharmingen™557307), ECD labeled anti-CD8 antibody (BECKMAN COULTER 41116015) and PerCP-CY5.5 labeled anti-CD3 antibody (Biolegend 300430).
The cells were treated for 15 minutes with Intraprep permeabilization reagent (Immunotech, Marseille, France). The cells were stained for 15 minutes with PE labeled anti-IL-2 antibody (BD Pharmingen™559334), Alexa700 labeled anti-TNFα antibody (BD Pharmingen™557996), and Pacific Blue labeled anti-IFN-γ antibody (Biolegend 502522)
After suspension into PBS containing 0.5% PFA, measurement was taken with Gallios flow cytometer (BECKMAN COULTER). For intracellular flow cytometry sorting, CD8 positive cells were used to analyze the production of interferon γ.

[1] = tested on: peripheral blood of healthy individuals with HLA-A*02:01; experiment: interferon γ ELISPOT assay; assay type: cell-based, human; parameters: key: ++ refers to a sample found to produce interferon γ in 3/3; + refers to a sample found to produce interferon γ in ⅓ to ⅔; conditions: 1×10^5 cells stimulated 16 hours; HLA-A*02:01 healthy donor peripheral blood
Protocol: as §1
The conducted assay performed interferon γ ELISPOT and intracellular interferon γ staining. For the interferon γ ELISPOT, MABTECH anti-human IFN-γ mAb 1-D1K, purified (3420-3-250) was used as a capture antibody. In addition, MILLIPORE MultiScreen HTS 96-well Filtration Plate was used.
Briefly stated, the following was performed. • (1) Cytokine (interferon-γ in this example) specific monoclonal antibodies (MABTECH anti-human IFN-γ mAb 1-D1K, purified (3420-3-250)) were immobilized on the solid layer surface. MILLIPORE MultiScreen HTS 96-well Filtration Plate was used in this example. • (2) 1×10^5 cells were stimulated and cultured for 16 hours after washing. The secreted cytokines, i.e., interferon-γ, were bound to capture antibodies (Detection antibody; MABTECH anti-human IFN-γ mAb 7-B6-1, biotinylated (3420-6-250)) that were around the producing cells. After removing the cells by washing, anti-interferon γ antibodies for detection were added.
For biotin labeled detection antibodies, enzyme labeled streptavidin (MABTECH Streptavidin-HRP (3310-9)) was added. • (3) Next, BD ELISPOT AEC Substrate Set (551951) was used for coloration. This method allows the spot corresponding to the position where interferon γ (cytokine) producing cell was located to be seen. The obtained spots were counted with a Carl Zeiss KS ELISPOT (Minerva Tech). The frequency of positive cells was recorded. (Intracellular Interferon γ Staining)

Substance | IFNγ secretion Intra (CD8 positive cells) | IFNγ secretion ELISPOT [1]
36 (ILQEYREDFV) [compound 36] | + | –
NISSRIHTV [pepID 33] | ++ | +
27 (KVLQLLEPEI) [compound 27] | + | –
42 (KTFTYSSAL) [compound 42] | – | ++
21 (QLLEPEISFL) [compound 21] | ++ | –
FTYSSALKV [pepID 41] | ++ | ++
FLALECLAHL [pepID 14] | ++ | ++
18 (ICFLALECLAH) [compound 18] | – | ++
12 (NLKKLLVF) [compound 12] | – | ++
7 (VLNINDNEPV) [compound 7] | ++ | –
43 (FQYSSPALPT) [compound 43] | – | ++
30 (ALYPFEFRS) [compound 30] | + | –
